From patent US20040214784A1, “Permeable, water soluble, non-irritating prodrugs of chemotherapeutic agents with oxaalkanoic acids” (UNIVERSITY OF KENTUCKY RESEARCH FOUNDATION, priority 1999, published 2004)

Columns and labels:
[1] = Half-lives of hydrolysis of the prodrugs in phosphate buffer at pH 7.4
[2] = Half-lives of hydrolysis of the prodrugs in human serum
physchem = settings: buffer, pH 7.4, Half-life of hydrolysis
[3] = pH 7.4, Half-life of hydrolysis, Buffer, phosphate buffer at ph 7.4
[4] = pH 7.4, Half-life of hydrolysis, Buffer (to mono), phosphate buffer at ph 7.4, hydrolysis to mono
[5] = Half-life of hydrolysis, Serum (to mono), hydrolysis to mono

O=C(COCCOCCO)OCC1CCC(n2cnc3c(=O)[nH]cnc32)O1 (stereo not drawn)
half-life [1, 3]: 46 h
half-life ([2]; Half-life of hydrolysis, Serum): 0.0917 ± 0.00833 h

COCCOCC(=O)OCC1CCC(n2cnc3c(=O)[nH]cnc32)O1 (stereo not drawn)
half-life [1, 3]: 40 h
half-life ([2]; Half-life of hydrolysis, Serum): 0.0367 h

O=C(COCCOCCO)Nc1ccn(C2CCC(COC(=O)COCCOCCO)O2)c(=O)n1 (stereo not drawn)
half-life [1, 4]: 20 h
half-life [2, 5]: 0.0833 ± 0.0167 h

Nc1ccn(C2CCC(COC(=O)COCCOCCO)O2)c(=O)n1 (stereo not drawn)
half-life [1, 3]: 30 h
half-life ([2]; Half-life of hydrolysis, Serum): 0.167 ± 0.0167 h

Cc1cn(C2CC(N=[N+]=[N-])C(COC(=O)COCCOCCO)O2)c(=O)[nH]c1=O (stereo not drawn)
half-life [1, 3]: 21 h
half-life ([2]; Half-life of hydrolysis, Serum): 0.333 ± 0.0167 h

COCCOCC(=O)OCC1OC(n2cc(C)c(=O)[nH]c2=O)CC1N=[N+]=[N-] (stereo not drawn)
half-life [1, 3]: 13.3 ± 0.2 h
half-life ([2]; Half-life of hydrolysis, Serum): 0.06 ± 0.00167 h

CC(C)c1nc(CN(C)C(=O)N[C@H](C(=O)N[C@@H](Cc2ccccc2)C[C@H](OC(=O)COCCOCCO)[C@H](Cc2ccccc2)NC(=O)OCc2cncs2)C(C)C)cs1
half-life [1, 3]: 96 h
half-life ([2]; Half-life of hydrolysis, Serum): 24 h

COCCOCC(=O)O[C@H](CN1CC[C@H]2CCCC[C@H]2[C@H]1C(=O)NC(C)(C)C)[C@H](Cc1ccccc1)NC(=O)[C@H](CC(N)=O)NC(=O)c1ccc2ccccc2n1
half-life [1, 3]: 3.2 ± 0.5 h
half-life ([2]; Half-life of hydrolysis, Serum): 16 ± 1 h

CC(C)(C)NC(=O)[C@@H]1[C@@H]2CCCC[C@@H]2CCN1C[C@@H](OC(=O)COCCOCCO)[C@H](Cc1ccccc1)NC(=O)[C@H](CC(N)=O)NC(=O)c1ccc2ccccc2n1
half-life [1, 3]: 3.1 ± 0.1 h
half-life ([2]; Half-life of hydrolysis, Serum): 6 ± 0.5 h

COCCOCC(=O)OCC(=O)[C@@]12OC(C)(C)O[C@@H]1CC1C3CCC4=CC(=O)C=CC4(C)[C@@]3(F)[C@@H](O)CC12C (stereo partly drawn)
half-life (physchem): 15 h

COCCOCC(=O)OCn1cc(F)c(=O)[nH]c1=O
half-life [1, 3]: 1.47 h
half-life ([2]; Half-life of hydrolysis, Serum): 0.1 h

COCCOCC(=O)OCn1cc(F)c(=O)n(COC(=O)COCCOC)c1=O
half-life [1, 4]: 1.47 h
half-life [2, 5]: 0.00333 h

COCCOCC(=O)OCn1c(=O)[nH]cc(F)c1=O
half-life [1, 3]: 9.1 h
half-life ([2]; Half-life of hydrolysis, Serum): 0.00833 h

CC[C@@]1(OC(=O)COCCOC)C(=O)OCc2c1cc1n(c2=O)Cc2cc3ccccc3nc2-1
half-life [1, 3]: 26 h
half-life ([2]; Half-life of hydrolysis, Serum): 2 h

CC[C@@]1(OC(=O)COCCOCCO)C(=O)OCc2c1cc1n(c2=O)Cc2cc3ccccc3nc2-1
half-life ([1]; pH 7.4): 30 h
half-life [2]: 1.9 h

COCCOCC(=O)O[C@@H](C[C@H](Cc1ccccc1)NC(=O)[C@@H](NC(=O)N(C)Cc1csc(C(C)C)n1)C(C)C)[C@H](Cc1ccccc1)NC(=O)OCc1cncs1
half-life [1, 3]: > 48 h
half-life ([2]; Half-life of hydrolysis, Serum): 24 h

COCCOCC(=O)OCCOCn1cnc2c(=O)[nH]c(N)nc21
half-life [1, 3]: 30 h
half-life ([2]; Half-life of hydrolysis, Serum): 0.0917 h

COCCOCCOCC(=O)OCC1CCC(n2cnc3c(=O)[nH]cnc32)O1 (stereo not drawn)
half-life [1, 3]: 30 h
half-life ([2]; Half-life of hydrolysis, Serum): 0.02 h

COCCOCCOCC(=O)Nc1ccn(C2CCC(COC(=O)COCCOCCOC)O2)c(=O)n1 (stereo not drawn)
half-life [1, 3]: 14 ± 1 h
half-life ([2]; Half-life of hydrolysis, Serum): 0.583 ± 0.0833 h

COCCOCCOCC(=O)OCC1CCC(n2ccc(N)nc2=O)O1 (stereo not drawn)
half-life [1, 3]: 24 h
half-life ([2]; Half-life of hydrolysis, Serum): 0.075 h

COCCOCCOCC(=O)OCC1OC(n2cc(C)c(=O)[nH]c2=O)CC1N=[N+]=[N-] (stereo not drawn)
half-life [1, 3]: 12.3 ± 0.1 h
half-life ([2]; Half-life of hydrolysis, Serum): 0.4033 ± 0.00333 h

COCCOCCOCC(=O)O[C@H](CN1CC[C@H]2CCCC[C@H]2[C@H]1C(=O)NC(C)(C)C)[C@H](Cc1ccccc1)NC(=O)[C@H](CC(N)=O)NC(=O)c1ccc2ccccc2n1
half-life [1, 3]: 3.5 ± 0.2 h
half-life ([2]; Half-life of hydrolysis, Serum): 10 ± 1 h

COCCOCCOCC(=O)OCC(=O)[C@@]12OC(C)(C)O[C@@H]1CC1C3CCC4=CC(=O)C=CC4(C)[C@@]3(F)[C@@H](O)CC12C (stereo partly drawn)
half-life (physchem): 12 h

COCCOCCOCC(=O)OCn1cc(F)c(=O)[nH]c1=O
half-life [1, 3]: 3.73 h
half-life ([2]; Half-life of hydrolysis, Serum): 0.15 h

COCCOCCOCC(=O)OCn1cc(F)c(=O)n(COC(=O)COCCOCCOC)c1=O
half-life [1, 4]: 1.47 h
half-life [2, 5]: 0.00833 h

COCCOCCOCC(=O)OCn1c(=O)[nH]cc(F)c1=O
half-life [1, 3]: 7.28 h
half-life ([2]; Half-life of hydrolysis, Serum): 0.0167 h

CC[C@@]1(OC(=O)COCCOCCOC)C(=O)OCc2c1cc1n(c2=O)Cc2cc3ccccc3nc2-1
half-life ([1]; pH 7.4): 25 h
half-life [2]: 2 h

COCCOCCOCC(=O)OCC(CO)OCn1cnc2c(=O)[nH]c(N)nc21 (stereo not drawn)
half-life [1, 3]: 26 h
half-life ([2]; Half-life of hydrolysis, Serum): 0.2 h

COCCOCCOCC(=O)OCC(COC(=O)COCCOCCOC)OCn1cnc2c(=O)[nH]c(N)nc21
half-life [1, 3]: 10 h
half-life ([2]; Half-life of hydrolysis, Serum): 0.617 h

COCCOCCOCC(=O)OCCOCn1cnc2c(=O)[nH]c(N)nc21
half-life [1, 3]: 22 h
half-life ([2]; Half-life of hydrolysis, Serum): 0.0167 h

COCCOCCOCC(=O)O[C@@H](C[C@H](Cc1ccccc1)NC(=O)[C@@H](NC(=O)N(C)Cc1csc(C(C)C)n1)C(C)C)[C@H](Cc1ccccc1)NC(=O)OCc1cncs1
half-life [1, 3]: > 96 h
half-life ([2]; Half-life of hydrolysis, Serum): > 48 h

COCCOCCOCC(=O)Oc1cc(/C=C\c2cc(OC)c(OC)c(OC)c2)ccc1OC
half-life ([1]; pH 7.4): 10 h
half-life [2]: 0.0333 h

O=C(O)COCC(=O)OCC1CCC(n2cnc3c(=O)[nH]cnc32)O1 (stereo not drawn)
half-life [1, 3]: 9.4 ± 0.1 h
half-life ([2]; Half-life of hydrolysis, Serum): 0.0667 ± 0.00833 h

COC(=O)COCC(=O)OCC1CCC(n2ccc(N)nc2=O)O1 (stereo not drawn)
half-life [1, 3]: 10 ± 0.5 h
half-life ([2]; Half-life of hydrolysis, Serum): 0.1 ± 0.00333 h

CC(C)c1nc(CN(C)C(=O)N[C@H](C(=O)N[C@@H](Cc2ccccc2)C[C@H](OC(=O)COCC(=O)O)[C@H](Cc2ccccc2)NC(=O)OCc2cncs2)C(C)C)cs1
half-life [1, 3]: > 240 h
half-life ([2]; Half-life of hydrolysis, Serum): 40 h

COC(=O)COCC(=O)O[C@@H](C[C@H](Cc1ccccc1)NC(=O)[C@@H](NC(=O)N(C)Cc1csc(C(C)C)n1)C(C)C)[C@H](Cc1ccccc1)NC(=O)OCc1cncs1
half-life [1, 3]: 5.5 h
half-life ([2]; Half-life of hydrolysis, Serum): 2.4 h

COC(=O)COCC(=O)O[C@H](CN1CC[C@H]2CCCC[C@H]2[C@H]1C(=O)NC(C)(C)C)[C@H](Cc1ccccc1)NC(=O)[C@H](CC(N)=O)NC(=O)c1ccc2ccccc2n1
half-life [1, 3]: 2.5 h
half-life ([2]; Half-life of hydrolysis, Serum): 4.5 h

CC1(C)O[C@@H]2CC3C4CCC5=CC(=O)C=CC5(C)[C@@]4(F)[C@@H](O)CC3(C)[C@]2(C(=O)COC(=O)COCC(=O)O)O1 (stereo partly drawn)
half-life (physchem): 1 h

CC[C@@]1(OC(=O)COCC(=O)OC)C(=O)OCc2c1cc1n(c2=O)Cc2cc3ccccc3nc2-1
half-life ([1]; pH 7.4): 6.1 h
half-life [2]: 0.0333 h

CN(C)CCOCCOC(=O)COCC(=O)O[C@H](CN1CC[C@H]2CCCC[C@H]2[C@H]1C(=O)NC(C)(C)C)[C@H](Cc1ccccc1)NC(=O)[C@H](CC(N)=O)NC(=O)c1ccc2ccccc2n1
half-life [1, 3]: 7 h
half-life ([2]; Half-life of hydrolysis, Serum): 25 h

CN(C)CCOC(=O)COCC(=O)O[C@H](CN1CC[C@H]2CCCC[C@H]2[C@H]1C(=O)NC(C)(C)C)[C@H](Cc1ccccc1)NC(=O)[C@H](CC(N)=O)NC(=O)c1ccc2ccccc2n1
half-life [1, 3]: 10 h
half-life ([2]; Half-life of hydrolysis, Serum): 35 h

CC[C@@]1(OC(=O)COCC(=O)OCCN(C)C)C(=O)OCc2c1cc1n(c2=O)Cc2cc3ccccc3nc2-1
half-life ([1]; pH 7.4): 0.0833 h
half-life [2]: < 0.0167 h

CN(C)CCOCCOC(=O)COCC(=O)OCC1CCC(n2cnc3c(=O)[nH]cnc32)O1 (stereo not drawn)
half-life [1, 3]: 3.5 h
half-life ([2]; Half-life of hydrolysis, Serum): 0.05 h

CC[C@@]1(OC(=O)COCC(=O)OCCOCCN(C)C)C(=O)OCc2c1cc1n(c2=O)Cc2cc3ccccc3nc2-1
half-life ([1]; pH 7.4): 3 h
half-life [2]: 0.667 h

CC(C)c1nc(CN(C)C(=O)N[C@H](C(=O)N[C@@H](Cc2ccccc2)C[C@H](OC(=O)COCC(=O)OCCOCCN(C)C)[C@H](Cc2ccccc2)NC(=O)OCc2cncs2)C(C)C)cs1
half-life [1, 3]: 2.2 h
half-life ([2]; Half-life of hydrolysis, Serum): 1 h

CC(C)OC(=O)COCC(=O)OCC1CCC(n2cnc3c(=O)[nH]cnc32)O1 (stereo not drawn)
half-life [1, 3]: 10 h
half-life ([2]; Half-life of hydrolysis, Serum): 0.0833 h

CC(C)OC(=O)COCC(=O)Nc1ccn(C2CCC(COC(=O)COCC(=O)OC(C)C)O2)c(=O)n1 (stereo not drawn)
half-life [1, 3]: 5.6 h
half-life ([2]; Half-life of hydrolysis, Serum): 0.162 h

CC(C)OC(=O)COCC(=O)OCC1CCC(n2ccc(N)nc2=O)O1 (stereo not drawn)
half-life [1, 3]: 8.2 h
half-life ([2]; Half-life of hydrolysis, Serum): 0.0217 h

CC(C)OC(=O)COCC(=O)Nc1ccn(C2CCC(CO)O2)c(=O)n1 (stereo not drawn)
half-life [1, 3]: 18 h
half-life ([2]; Half-life of hydrolysis, Serum): 3.4 h

CC(C)OC(=O)COCC(=O)O[C@H](CN1CC[C@H]2CCCC[C@H]2[C@H]1C(=O)NC(C)(C)C)[C@H](Cc1ccccc1)NC(=O)[C@H](CC(N)=O)NC(=O)c1ccc2ccccc2n1
half-life [1, 3]: 5 h
half-life ([2]; Half-life of hydrolysis, Serum): 10 h

CC(C)(C)NC(=O)[C@@H]1[C@@H]2CCCC[C@@H]2CCN1C[C@@H](OC(=O)COCC(=O)OC(C)(C)C)[C@H](Cc1ccccc1)NC(=O)[C@H](CC(N)=O)NC(=O)c1ccc2ccccc2n1
half-life [1, 3]: 10 h
half-life ([2]; Half-life of hydrolysis, Serum): 20 h

CC(C)(C)OC(=O)COCC(=O)OCC1CCC(n2ccc(N)nc2=O)O1 (stereo not drawn)
half-life [1, 3]: 11 h
half-life ([2]; Half-life of hydrolysis, Serum): 0.0283 h

CC(C)(C)OC(=O)COCC(=O)Nc1ccn(C2CCC(CO)O2)c(=O)n1 (stereo not drawn)
half-life [1, 3]: 16 h
half-life ([2]; Half-life of hydrolysis, Serum): 5 h

CC(C)(C)OC(=O)COCC(=O)Nc1ccn(C2CCC(COC(=O)COCC(=O)OC(C)(C)C)O2)c(=O)n1 (stereo not drawn)
half-life [1, 3]: 6.2 h
half-life ([2]; Half-life of hydrolysis, Serum): 0.173 h

COC(=O)COCC(=O)Oc1cc(/C=C\c2cc(OC)c(OC)c(OC)c2)ccc1OC
half-life ([1]; pH 7.4): > 48 h
half-life [2]: 0.0417 h

COc1ccc(/C=C\c2cc(OC)c(OC)c(OC)c2)cc1OC(=O)COCC(=O)O
half-life ([1]; pH 7.4): 4 h
half-life [2]: 0.0333 h

COc1ccc(/C=C\c2cc(OC)c(OC)c(OC)c2)cc1OC(=O)COCC(=O)OC(C)(C)C
half-life [1, 3]: 8.5 h
half-life ([2]; Half-life of hydrolysis, Serum): 0.123 h

Nc1nc2c(ncn2COCCOC(=O)COCC(=O)O)c(=O)[nH]1
half-life [1, 3]: 40 h
half-life ([2]; Half-life of hydrolysis, Serum): 25 h

CC(C)(C)OC(=O)COCC(=O)OCCOCn1cnc2c(=O)[nH]c(N)nc21
half-life [1, 3]: 16 h
half-life ([2]; Half-life of hydrolysis, Serum): 0.045 h

Nc1nc2c(ncn2COCCOC(=O)COCC(=O)OCCOCn2cnc3c(=O)[nH]c(N)nc32)c(=O)[nH]1
half-life ([1]; pH 7.4, Half-life of hydrolysis, Buffer, bis to mono, phosphate buffer at ph 7.4, bis to mono): 10 h
half-life ([2]; Half-life of hydrolysis, Serum, bis to mono): 4 h
